Experiments:
CBL-B (residues 36-427) = biological target: T1, CBL-B (residues 36-427) (Homo sapiens, UniProt Q13191); test: Ligand Displacement Assay (LDA), HTRF competitive binding against BODIPY-labeled fluorescent tracer, CBL-B; conditions: geometric mean of the number of tests, read-out: CBL-B Ki (nM) GMean
T1 construct: Purified CBL-B (residues 36-427) and C-CBL (residues 46-435) proteins from baculovirus-infected insect cells; made in house; host or cells: baculovirus-infected insect cells
Method in brief: (§1)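 Terbium-streptavidin donor on BirA-biotinylated, AviTagged protein from baculovirus-infected insect cells; BODIPY tracer as acceptor. Compound titrations were three-fold and duplicated, […] with 2% DMSO final.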

C-CBL (residues 46-435) = biological target: T2, C-CBL (residues 46-435) (Homo sapiens, UniProt P22681); test: Ligand Displacement Assay (LDA), HTRF competitive binding against BODIPY-labeled fluorescent tracer, C-CBL; conditions: geometric mean of the number of tests, read-out: C-CBL Ki (nM) GMean
T2 construct: Purified CBL-B (residues 36-427) and C-CBL (residues 46-435) proteins from baculovirus-infected insect cells; made in house; host or cells: baculovirus-infected insect cells
T2 sequence (P22681 46-435): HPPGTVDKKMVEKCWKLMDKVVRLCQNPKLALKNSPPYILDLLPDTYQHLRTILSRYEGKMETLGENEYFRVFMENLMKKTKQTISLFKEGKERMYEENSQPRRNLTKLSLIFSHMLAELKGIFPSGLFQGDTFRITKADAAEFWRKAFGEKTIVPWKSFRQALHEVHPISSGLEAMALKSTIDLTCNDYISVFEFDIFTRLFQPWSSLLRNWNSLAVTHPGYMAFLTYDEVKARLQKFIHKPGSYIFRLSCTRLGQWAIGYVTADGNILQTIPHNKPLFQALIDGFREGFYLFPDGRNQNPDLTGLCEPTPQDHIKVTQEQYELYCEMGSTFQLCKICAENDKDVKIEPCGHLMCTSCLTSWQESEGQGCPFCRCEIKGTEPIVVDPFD
Method in brief: as §1

WT CBL-B (36-427) = biological target: T3, WT CBL-B (36-427) (Homo sapiens, UniProt Q13191); test: Surface Plasmon Resonance (SPR) assay, binding affinity and kinetics, CBL-B; conditions: SPR at 10° C., biotinylated WT CBL-B (36-427) on streptavidin chip; geometric mean; read-out: CBL-B SPR Kd (nM) GMean
T3 construct: N-terminal biotinylated WT CBL-B (36-427) and C-CBL (46-435) were captured on a streptavidin (SA) coated sensor chip
Procedure: (§2) Surface Plasmon Resonance (SPR) Assay
(§3) The purpose of the SPR assay is to evaluate the binding affinity and kinetics of the compound of disclosure binding to CBL-B and C-CBL.
(§4) The binding affinity and kinetics of compound binding to CBL-B and C-CBL were measured by Surface Plasmon Resonance (SPR) using either Biacore S200, 8K or 8K+ (Cytiva, Marlborough, MA) instruments. N-terminal biotinylated WT CBL-B (36-427) and C-CBL (46-435) were captured on a streptavidin (SA) coated sensor chip to achieve approximately 5000 to 6000 RUs of surface density. Un-functionalized SA surfaces with no immobilized protein served as reference for binding kinetic analysis. All the samples were prepared in buffer consisting of 10 mM HEPES, 150 mM NaCl, 0.05% Tween-20, 5% glycerol, […], 2% DMSO, pH 7.2. The same buffer was used as the running buffer during the experiments. Compound binding kinetics were measured in either multi-cycle or single-cycle kinetic format.
(§5) Multi-cycle kinetic analysis (MCK): A two-fold, 10-point serial dilution of test compounds was set-up in a 96-well microplate (Greiner; Cat #650101) with a top concentration of either 10 μM or 100 μM. Binding kinetics was measured at 10° C. by injecting serial dilution of compounds onto both reference and CBL immobilized channels at a flow rate of 100 μL/min and association time of 90 seconds. Compound dissociation was monitored for >400 seconds during each cycle. No additional regeneration was used. DMSO calibration curve was obtained before and after compound analysis by injecting 0-4% of DMSO in assay buffer. A suitable compound with known affinity and kinetics was tested once in every experiment as a positive control to assess activity of the captured proteins on the surface.
(§6) Single-cycle kinetic analysis (SCK): A 3-fold, 6-point serial dilution of compounds was set-up in a deep 96-well microplate (Greiner Bio; Cat #780201) with the highest concentration of 1 μM (concentration range: […]). Binding kinetics was measured at 10° C. by injecting serial dilutions of compounds in increasing order onto reference as well as CBL immobilized channels at a flow rate of 100 μL/min and association time of 120 seconds. Compound dissociation was monitored for >5400 seconds. Two buffer blanks were also run in a single-cycle kinetics format before the compound run for double referencing. No additional regeneration was used. DMSO calibration curve was obtained before and after compound analysis by injecting 0-4% of DMSO in the assay buffer. A suitable compound with known affinity and kinetics was tested once in every experiment as a positive control to assess activity of the captured proteins on the surface.

C-CBL (46-435) = biological target: T4, C-CBL (46-435) (Homo sapiens, UniProt P22681); test: Surface Plasmon Resonance (SPR) assay, binding affinity and kinetics, C-CBL; conditions: SPR at 10° C., biotinylated C-CBL (46-435) on streptavidin chip; geometric mean; read-out: C-CBL SPR Kd (nM) GMean
T4 construct: N-terminal biotinylated WT CBL-B (36-427) and C-CBL (46-435) were captured on a streptavidin (SA) coated sensor chip
T4 sequence (P22681 46-435): T2 sequence (P22681 46-435)
Procedure: as §2, §3, §4, §5, §6

Compound | Ki (CBL-B (residues 36-427)) [nM] | Ki (C-CBL (residues 46-435)) [nM] | Kd (WT CBL-B (36-427)) [nM] | Kd (C-CBL (46-435)) [nM]
CN1CC[C@@H](Oc2nc(C(F)(F)F)cc3c(-c4cccc([C@H](c5nncn5C)C5CCC5)c4)n[nH]c23)C1 [Example J4, 3-{3-[(R)-cyclobutyl(4-methyl-4H-1,2,4-triazol-3-yl)methyl]phenyl}-7-{[(3R)-1-methylpyrrolidin-3-yl]oxy}-5-(trifluoromethyl)-1H-pyrazolo[3,4-c]pyridine] | 9.2 | 83.6 | 3.7 | 145
Cn1cnnc1[C@@H](c1cccc(-c2n[nH]c3c(CN4CC(F)(F)C4)nc(C(F)(F)F)cc23)c1)C1CCC1 [Example C115, 3-{3-[(R)-cyclobutyl(4-methyl-4H-1,2,4-triazol-3-yl)methyl]phenyl}-7-[(3,3-difluoroazetidin-1-yl)methyl]-5-(trifluoromethyl)-1H-pyrazolo[3,4-c]pyridine] | 73.8 | 1020 | 9.2 | 195
C[C@@H](c1nc(C(F)(F)F)cc2c(-c3cccc(C4(Cc5nncn5C)COC4)c3)n[nH]c12)N1CCC1 (single isomer, unassigned) [Example D41] | 18.5 | 65.5 | 6.2 | 50.8
Cn1cnnc1[C@@H](c1cccc(-c2n[nH]c3c(C4CCCCN4)nc(C(F)(F)F)cc23)c1)C1CCC1 (single isomer, unassigned) [Example L1] | 74.2 | 439 | 40.7 | 697
CNCc1nc(C(F)(F)F)cc2c(-c3cccc(C4(Cc5nncn5C)COC4)c3)n[nH]c12 [Example C52, N-methyl-1-[3-(3-{3-[(4-methyl-4H-1,2,4-triazol-3-yl)methyl]oxetan-3-yl}phenyl)-5-(trifluoromethyl)-1H-pyrazolo[3,4-c]pyridin-7-yl]methanamine] | 32.9 | 134 | 9.3 | 124
Cn1cnnc1CC1(c2cccc(-c3n[nH]c4c(CN5CCCC5)nc(C(F)(F)F)cc34)c2)COC1 [Example C62, 3-(3-{3-[(4-methyl-4H-1,2,4-triazol-3-yl)methyl]oxetan-3-yl}phenyl)-7-[(pyrrolidin-1-yl)methyl]-5-(trifluoromethyl)-1H-pyrazolo[3,4-c]pyridine] | 34.3 | 162 | 8.6 | 111
CC(C)NCc1nc(C(F)(F)F)cc2c(-c3cccc([C@H](c4nncn4C)C4CCC4)c3)n[nH]c12 [Example D80] | 23 | 181 | 9.5 | 306
Cn1cnnc1[C@@H](c1cccc(-c2n[nH]c3c(CN[C@@H]4CCC[C@H]4O)nc(C(F)(F)F)cc23)c1)C1CCC1 [Example C121, (1R,2R)-2-({[3-{3-[(R)-cyclobutyl(4-methyl-4H-1,2,4-triazol-3-yl)methyl]phenyl}-5-(trifluoromethyl)-1H-pyrazolo[3,4-c]pyridin-7-yl]methyl}amino)cyclopentan-1-ol] | 18.9 | 111 | 3.3 | 113
Cn1cnnc1[C@@H](c1cccc(-c2n[nH]c3c(CN4CCCCC4)nc(C(F)(F)F)cc23)c1)C1CCC1 [Example D95] | 40.7 | 360 | 6.5 | 226
Cc1nccc2c(-c3cccc([C@H](c4nncn4C)C4CCC4)c3)n[nH]c12 [Example A7, 3-{3-[(R)-cyclobutyl(4-methyl-4H-1,2,4-triazol-3-yl)methyl]phenyl}-7-methyl-1H-pyrazolo[3,4-c]pyridine] | 83.8 | 767 | 31 | 1300

From patent US20260125375A1 (Pfizer Inc., priority 2022, published 2026)
